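Assay format: 96-well plates, 48-hour exposure. TGI: total growth inhibition.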
Columns and labels:
Experiment in all cases: NCI anticancer screen, dose series, 48 h
[1] = system: 786-0 renal
[2] = system: BT-549 breast
[3] = system: CCRF-CEM leukemia
[4] = system: EKVX NSCLC
[5] = system: HCT-15 colon
[6] = system: HOP-92 NSCLC
[7] = system: HS 578T breast
[8] = system: KM12 colon
[9] = system: MDA-N
[10] = system: NCI-H522 lung
[11] = system: OVCAR-3 ovarian
[12] = system: OVCAR-4 ovarian
[13] = system: RXF 393 renal
[14] = system: SF-295 CNS
[15] = system: SF-539 CNS
[16] = system: SK-MEL-2 melanoma
[17] = system: SN12C renal
[18] = system: SR leukemia
[19] = system: HOP-62 NSCLC

## c1ccc(C2C3=C(CCCC3)Nc3nc4cc5ccccc5cc4n32)cc1 (centres undefined)
[1]
  TGI: > 100 µM
[2]
  TGI: > 100 µM
[3]
  TGI: > 100 µM
[4]
  TGI: > 100 µM
[5]
  TGI: > 100 µM
[6]
  TGI: > 100 µM
[7]
  TGI: > 100 µM
[8]
  TGI: > 100 µM
[9]
  TGI: > 100 µM
[10]
  TGI: > 100 µM
[11]
  TGI: > 100 µM
[12]
  TGI: > 100 µM
[13]
  TGI: > 100 µM
[14]
  TGI: > 100 µM
[15]
  TGI: > 100 µM
[16]
  TGI: > 100 µM
[17]
  TGI: > 100 µM
[18]
  TGI: > 100 µM

## CCCCCC(O)[C@H]1C(=O)C[C@@H](O[Si](C)(C)C(C)(C)C)[C@@H]1/C=C/CCOCc1ccccc1 (some centres undefined)
[1]
  TGI: 26.1 µM
[2]
  TGI: 21.3 µM
[3]
  TGI: > 100 µM
[4]
  TGI: 35.2 µM
[5]
  TGI: 27.4 µM
[19]
  TGI: 34.1 µM
[6]
  TGI: 28.1 µM
[7]
  TGI: 26.4 µM
[8]
  TGI: 17.2 µM
[9]
  TGI: > 63.9 µM
[10]
  TGI: 15 µM
[11]
  TGI: 28.1 µM
[12]
  TGI: 34.1 µM
[13]
  TGI: 31.3 µM
[14]
  TGI: 20.3 µM
[15]
  TGI: 29.5 µM
[16]
  TGI: 31.2 µM
[17]
  TGI: 38.4 µM
[18]
  TGI: > 62.9 µM

## Cc1cccc(N=Nc2c(C)nn(C(=O)CC(=O)Nc3ccccc3)c2C)c1
[1]
  TGI: > 100 µM
[2]
  TGI: > 100 µM
[3]
  TGI: > 100 µM
[4]
  TGI: > 100 µM
[5]
  TGI: > 100 µM
[19]
  TGI: > 100 µM
[6]
  TGI: > 100 µM
[7]
  TGI: > 100 µM
[8]
  TGI: > 100 µM
[9]
  TGI: > 100 µM
[10]
  TGI: > 100 µM
[11]
  TGI: > 100 µM
[12]
  TGI: > 100 µM
[13]
  TGI: > 100 µM
[14]
  TGI: > 100 µM
[15]
  TGI: > 100 µM
[16]
  TGI: > 100 µM
[17]
  TGI: > 100 µM
[18]
  TGI: > 100 µM

## Oc1c2cc(Br)cc1CCc1cc(Br)cc(c1O)CC2
[1]
  TGI: > 100 µM
[2]
  TGI: 73.1 µM
[3]
  TGI: 97.5 µM
[5]
  TGI: 80.7 µM
[19]
  TGI: 65.7 µM
[7]
  TGI: 73.4 µM
[8]
  TGI: 37.5 µM
[9]
  TGI: > 100 µM
[10]
  TGI: 45.8 µM
[11]
  TGI: 48.8 µM
[13]
  TGI: 70.4 µM
[14]
  TGI: 52.5 µM
[15]
  TGI: 58.6 µM
[16]
  TGI: 52.9 µM
[17]
  TGI: > 100 µM
[18]
  TGI: > 100 µM

## CC(NC(=O)C(N)Cc1ccc(O)cn1)C(=O)O (centres undefined)
[1]
  TGI: > 100 µM
[2]
  TGI: > 100 µM
[3]
  TGI: > 100 µM
[4]
  TGI: > 100 µM
[5]
  TGI: > 100 µM
[19]
  TGI: > 100 µM
[6]
  TGI: > 100 µM
[7]
  TGI: > 100 µM
[8]
  TGI: > 100 µM
[9]
  TGI: > 100 µM
[10]
  TGI: > 100 µM
[11]
  TGI: > 100 µM
[12]
  TGI: > 100 µM
[13]
  TGI: > 100 µM
[14]
  TGI: > 100 µM
[15]
  TGI: > 100 µM
[17]
  TGI: > 100 µM
[18]
  TGI: > 100 µM

## O=CN1CCN(C(=O)c2cc(Cl)cc(Cl)c2)C1=S
[1]
  TGI: 15.7 µM
[2]
  TGI: 31.3 µM
[3]
  TGI: 25.5 µM
[4]
  TGI: 32.3 µM
[5]
  TGI: 35.2 µM
[19]
  TGI: 29.7 µM
[6]
  TGI: 31.9 µM
[7]
  TGI: 71.4 µM
[8]
  TGI: 29.8 µM
[9]
  TGI: 35.4 µM
[10]
  TGI: 15.4 µM
[11]
  TGI: 27.9 µM
[12]
  TGI: 33.4 µM
[13]
  TGI: 30.6 µM
[14]
  TGI: 36 µM
[15]
  TGI: 39.7 µM
[16]
  TGI: 33 µM
[17]
  TGI: 31 µM

## O=C(c1cccc(OCc2ccccc2)c1OCc1ccccc1)N1CCSC1=S
[1]
  TGI: > 100 µM
[2]
  TGI: > 100 µM
[3]
  TGI: 24.4 µM
[4]
  TGI: > 100 µM
[5]
  TGI: > 100 µM
[19]
  TGI: > 100 µM
[6]
  TGI: > 100 µM
[7]
  TGI: > 45.8 µM
[8]
  TGI: 36.9 µM
[9]
  TGI: > 100 µM
[10]
  TGI: > 58.1 µM
[11]
  TGI: 62.9 µM
[12]
  TGI: > 100 µM
[14]
  TGI: > 100 µM
[15]
  TGI: > 100 µM
[16]
  TGI: > 75.4 µM
[17]
  TGI: > 100 µM
[18]
  TGI: 45.2 µM

## CC(C)[Si](OC1=C(C(=O)Nc2ccccc2Cl)CCCCC1)(C(C)C)C(C)C
[1]
  TGI: > 100 µM
[2]
  TGI: > 100 µM
[3]
  TGI: 12.3 µM
[4]
  TGI: > 100 µM
[5]
  TGI: > 100 µM
[19]
  TGI: > 100 µM
[6]
  TGI: > 100 µM
[7]
  TGI: > 100 µM
[8]
  TGI: > 100 µM
[9]
  TGI: > 100 µM
[10]
  TGI: > 100 µM
[11]
  TGI: > 100 µM
[12]
  TGI: > 100 µM
[13]
  TGI: > 100 µM
[14]
  TGI: > 100 µM
[15]
  TGI: > 100 µM
[16]
  TGI: > 100 µM
[17]
  TGI: > 100 µM
[18]
  TGI: > 100 µM

## O=S(=O)(N=S(c1ccc(Cl)cc1)c1ccc(Cl)cc1)c1ccccc1
[1]
  TGI: > 100 µM
[2]
  TGI: > 100 µM
[3]
  TGI: > 100 µM
[4]
  TGI: > 100 µM
[5]
  TGI: > 100 µM
[19]
  TGI: > 100 µM
[6]
  TGI: > 100 µM
[7]
  TGI: > 100 µM
[8]
  TGI: > 100 µM
[9]
  TGI: > 100 µM
[10]
  TGI: > 100 µM
[12]
  TGI: > 100 µM
[13]
  TGI: > 100 µM
[14]
  TGI: > 100 µM
[15]
  TGI: > 100 µM
[16]
  TGI: > 100 µM
[17]
  TGI: > 100 µM
[18]
  TGI: > 100 µM

## CC1=NN(C(=O)CC(=O)Nc2ccccc2Cl)C(=O)C1N=Nc1ccc(C(=O)O)cc1 (centres undefined)
[1]
  TGI: > 100 µM
[2]
  TGI: > 100 µM
[3]
  TGI: > 100 µM
[4]
  TGI: > 100 µM
[5]
  TGI: > 100 µM
[19]
  TGI: > 100 µM
[6]
  TGI: > 100 µM
[7]
  TGI: > 100 µM
[8]
  TGI: > 100 µM
[9]
  TGI: > 100 µM
[10]
  TGI: > 100 µM
[11]
  TGI: > 100 µM
[12]
  TGI: > 100 µM
[13]
  TGI: > 100 µM
[14]
  TGI: > 100 µM
[15]
  TGI: > 100 µM
[16]
  TGI: > 100 µM
[17]
  TGI: > 100 µM
[18]
  TGI: > 100 µM

## CN(/N=C/c1cccs1)c1ccc(Cl)cc1[N+](=O)[O-]
[1]
  TGI: > 100 µM
[2]
  TGI: > 100 µM
[3]
  TGI: 73.2 µM
[4]
  TGI: > 100 µM
[5]
  TGI: > 100 µM
[19]
  TGI: > 100 µM
[7]
  TGI: 76.2 µM
[8]
  TGI: > 100 µM
[9]
  TGI: > 100 µM
[10]
  TGI: 69.5 µM
[11]
  TGI: > 100 µM
[12]
  TGI: > 100 µM
[13]
  TGI: > 100 µM
[14]
  TGI: > 100 µM
[15]
  TGI: 75 µM
[17]
  TGI: > 100 µM
[18]
  TGI: > 100 µM

## COC(=O)c1ccc(N=NN(C)COc2ccc(C#N)cc2)cc1
[1]
  TGI: > 100 µM
[2]
  TGI: > 100 µM
[3]
  TGI: > 100 µM
[4]
  TGI: > 100 µM
[5]
  TGI: > 100 µM
[19]
  TGI: > 100 µM
[6]
  TGI: > 100 µM
[7]
  TGI: > 100 µM
[8]
  TGI: > 100 µM
[9]
  TGI: > 100 µM
[10]
  TGI: > 100 µM
[11]
  TGI: > 100 µM
[12]
  TGI: > 100 µM
[13]
  TGI: > 100 µM
[14]
  TGI: > 100 µM
[15]
  TGI: > 100 µM
[16]
  TGI: > 100 µM
[17]
  TGI: > 100 µM

## OCC1NCC(O)C(O)C1O (centres undefined)
[1]
  TGI: > 100 µM
[2]
  TGI: > 100 µM
[3]
  TGI: > 100 µM
[4]
  TGI: > 100 µM
[5]
  TGI: > 100 µM
[19]
  TGI: > 100 µM
[6]
  TGI: > 100 µM
[7]
  TGI: > 100 µM
[8]
  TGI: > 100 µM
[9]
  TGI: > 100 µM
[10]
  TGI: > 100 µM
[11]
  TGI: > 100 µM
[12]
  TGI: > 100 µM
[13]
  TGI: > 100 µM
[15]
  TGI: > 100 µM
[17]
  TGI: > 100 µM
[18]
  TGI: > 100 µM
